Measurements: patent US20150064221A1, “COMPOUNDS HAVING IMMUNOMUDULATOR ACTIVITY” (priority 2012, published 2015)

Experiments:
CAR-induced pleurisy = assay: Carrageenan (CAR)-induced pleurisy; format: in vivo, mice; settings: i.p. or oral
Experimental: VGX-1027 was administered via the intraperitoneum or orally, and the production of exudates volume (A), PCN infiltration (B), and MPO activity (C) in the lungs was determined. Data are means±SD from 2 independent experiments.
Next, carrageenan (CAR)-induced pleurisy, a well-known model of acute inflammation mediated by leukocytes where type-1 proinflammatory cytokines such as IL-1 and TNF-α play a major pathogenic role, was evaluated. Mice that are challenged with CAR develop acute pleurisy with turbid exudates. The amount of inflammation was measured by the volume of exudates, the number of granulocytes (PCN), and the amount of Myeloperoxidase (MPO), activity in the lungs. Anti-TNF antibodies were used as a control to compare the effects of VGX-1027 with those of TNF-α blockade, which is commonly used to treat inflammatory disorders in humans.

PBMCs = assay: Transcriptional profile analysis (microarray) of LPS-stimulated PBMCs; format: cell-based, human; parameters: mean/difference of means: scale not given here; settings: for mean/difference of means: VGX-treated vs LPS stimulated group
Experimental: Transcriptional profile analysis: PBMCs from three individual healthy donors, obtained from the University of Pennsylvania School of Medicine, Immunology Clinical Core. Cells (5×10̂6) were treated with either LPS (5 μg/ml), LPS (5 μg/ml)+VGX-1027 (10 uM) or PBS for 48 hours and subsequently, RNA was extracted using the RNeasy kit (Qiagen) following manufacturer's instructions.
RNA was hybridized to the Human Gene 1.0 ST array (Affymetrix). Microarray data were analyzed using the web-based utility Expression Profiler (http://www.ebi.ac.uk/expressionprofiler/). Data normalization was achieved by performing logarithmic transformation of all intensities followed by gene mean-centering. Multiple array probes were collapsed by averaging the intensities. Principal component analysis (PCA) was conducted on all genes to assign the general variability in the data to a reduced set of variables. Gene expression differences were assessed by means of Student's t test, and genes with a p<0.01 were considered differentially expressed. Selected genes were subjected to K-means clustering, using Euclidean distance as correlation measurement, and gene ontology (GO) analysis was performed using the Database for Annotation, Visualization and Integrated Discovery (DAVID) tool. Hierarchical clustering of selected genes was performed using Euclidean distance measurements as similarity comparison.

[1] = Twenty-eight day toxicology study in dogs; format: in vivo; settings: 28 days, highest dose 100 mg/kg/day
Experimental: Twenty-eight day toxicology studies were performed in both mice and dogs with increasing concentration to achieve toxicity. The following are the results of those studies.

With O=C(O)CC1CC(c2ccccc2)=NO1 (centres unmarked) [VGX-1027, 3-phenyl-4,5-dihydro-5-isoxazoleacetic acid] the “Myeloperoxidase (MPO) activity in the lungs” value (CAR-induced pleurisy) was “effectively decreased”, the “number of granulocytes (PCN)” value (CAR-induced pleurisy) was “effectively decreased” and the “prevention of CAR-induced pleurisy compared with anti-TNF” value (CAR-induced pleurisy) was “as effective as anti-TNF treatment”. The volume of exudates (CAR-induced pleurisy) was “effectively decreased”, the “genes in cluster strongly downregulated upon treatment” value (PBMCs; K-means clustering) was 525 and the “genes modulated relative to LPS” value (PBMCs; LPS 5 μg/ml + 10 uM, 48 hours) was 895. The mean/difference of means (PBMCs; gene 7912155, most down-regulated genes) was 0.111, the mean/difference of means (PBMCs; gene 7923965, most down-regulated genes) was 0.439 and the mean/difference of means (PBMCs; gene 7945084, most down-regulated genes) was 0.165. It also gave a mean/difference of means (PBMCs; gene 7997245, most up-regulated genes) of −0.0599, a mean/difference of means (PBMCs; gene 8007069, most down-regulated genes) of 0.074 and a mean/difference of means (PBMCs; gene 8017100, most down-regulated genes) of 0.108. The mean/difference of means (PBMCs; gene 8028281, most down-regulated genes) was 0.0791, the mean/difference of means (PBMCs; gene 8043441, most up-regulated genes) was −0.406 and the mean/difference of means (PBMCs; gene 8077169, most down-regulated genes) was 0.153. The mean/difference of means (PBMCs; gene 8094946, most down-regulated genes) was 0.07, the mean/difference of means (PBMCs; gene 8102775, most down-regulated genes) was 0.101 and the mean/difference of means (PBMCs; gene 8104068, most down-regulated genes) was 0.118. For the same molecule, the mean/difference of means (PBMCs; gene 8134024, most down-regulated genes) was 0.0796, the mean/difference of means (PBMCs; gene 8135943, most down-regulated genes) was 0.406 and the mean/difference of means (PBMCs; gene 8136446, most up-regulated genes) was −0.146. It also gave a mean/difference of means (PBMCs; gene 8140035, most down-regulated genes) of 0.388, a mean/difference of means (PBMCs; gene 8150101, most up-regulated genes) of −0.237 and a mean/difference of means (PBMCs; gene 8153835, most down-regulated genes) of 0.0829. It also gave a mean/difference of means (PBMCs; gene 8160555, most down-regulated genes) of 0.171, a mean/difference of means (PBMCs; gene ADAM19, most up-regulated genes) of −0.176 and a mean/difference of means (PBMCs; gene AIM2, most up-regulated genes) of −0.221. It also gave a mean/difference of means (PBMCs; gene ALKBH5, most down-regulated genes) of 0.0698, a mean/difference of means (PBMCs; gene APOBEC3G, most up-regulated genes) of −0.239 and a mean/difference of means (PBMCs; gene ATXN10, most up-regulated genes) of −0.131. It also gave a mean/difference of means (PBMCs; gene BLNK, most up-regulated genes) of −0.398, a mean/difference of means (PBMCs; gene BOLA3, most up-regulated genes) of −0.118 and a mean/difference of means (PBMCs; gene C1orf2, most down-regulated genes) of 0.106. The mean/difference of means (PBMCs; gene C11orf53, most down-regulated genes) was 0.184, the mean/difference of means (PBMCs; gene C20orf173, most down-regulated genes) was 0.14 and the mean/difference of means (PBMCs; gene CABYR, most down-regulated genes) was 0.135. The mean/difference of means (PBMCs; gene CCKBR, most down-regulated genes) was 0.0588, the mean/difference of means (PBMCs; gene CCL8, most up-regulated genes) was −1.08 and the mean/difference of means (PBMCs; gene CD22, most up-regulated genes) was −0.453. The mean/difference of means (PBMCs; gene CD38, most up-regulated genes) was −0.468, the mean/difference of means (PBMCs; gene CHML, most up-regulated genes) was −0.24 and the mean/difference of means (PBMCs; gene CIZ1, most down-regulated genes) was 0.0416. For the same molecule, the mean/difference of means (PBMCs; gene CLIC5, most up-regulated genes) was −0.175, the mean/difference of means (PBMCs; gene CLU, most up-regulated genes) was −0.218 and the mean/difference of means (PBMCs; gene CPA3, most up-regulated genes) was −0.669. The mean/difference of means (PBMCs; gene CYTH1, most down-regulated genes) was 0.0452, the mean/difference of means (PBMCs; gene DNAH1, most up-regulated genes) was −0.134 and the mean/difference of means (PBMCs; gene EDN2, most down-regulated genes) was 0.0391. For the same molecule, the mean/difference of means (PBMCs; gene EGR4, most down-regulated genes) was 0.129, the mean/difference of means (PBMCs; gene EOMES, most up-regulated genes) was −0.0887 and the mean/difference of means (PBMCs; gene ETNK2, most down-regulated genes) was 0.278. It also gave a mean/difference of means (PBMCs; gene FAM108C1, most down-regulated genes) of 0.0544, a mean/difference of means (PBMCs; gene FAS, most up-regulated genes) of −0.12 and a mean/difference of means (PBMCs; gene FCRL1, most up-regulated genes) of −0.301. It also gave a mean/difference of means (PBMCs; gene FNBP1L, most down-regulated genes) of 0.203, a mean/difference of means (PBMCs; gene FUK, most down-regulated genes) of 0.0866 and a mean/difference of means (PBMCs; gene GATAD1, most down-regulated genes) of 0.0258. It also gave a mean/difference of means (PBMCs; gene GEN1, most up-regulated genes) of −0.368, a mean/difference of means (PBMCs; gene GGTLC2, most down-regulated genes) of 0.179 and a mean/difference of means (PBMCs; gene HAGH, most down-regulated genes) of 0.0712. The mean/difference of means (PBMCs; gene HISPPD2A, most down-regulated genes) was 0.0217, the mean/difference of means (PBMCs; gene HSPA12B, most down-regulated genes) was 0.0281 and the mean/difference of means (PBMCs; gene KARS, most up-regulated genes) was −0.126. It also gave a mean/difference of means (PBMCs; gene KCTD10, most up-regulated genes) of −0.0613, a mean/difference of means (PBMCs; gene KLF3, most down-regulated genes) of 0.115 and a mean/difference of means (PBMCs; gene KLF10, most up-regulated genes) of −0.11. It also gave a mean/difference of means (PBMCs; gene KLHDC4, most up-regulated genes) of −0.0727, a mean/difference of means (PBMCs; gene LARS2, most up-regulated genes) of −0.176 and a mean/difference of means (PBMCs; gene LCP2, most up-regulated genes) of −0.0536. It also gave a mean/difference of means (PBMCs; gene LRRC8D, most down-regulated genes) of 0.139, a mean/difference of means (PBMCs; gene LYRM4, most up-regulated genes) of −0.294 and a mean/difference of means (PBMCs; gene MAGOH, most up-regulated genes) of −0.1. The mean/difference of means (PBMCs; gene MOV10L1, most down-regulated genes) was 0.0753, the mean/difference of means (PBMCs; gene MRPL15, most up-regulated genes) was −0.147 and the mean/difference of means (PBMCs; gene MRPS35, most up-regulated genes) was −0.164. It also gave a mean/difference of means (PBMCs; gene NDUFA4, most up-regulated genes) of −0.0638, a mean/difference of means (PBMCs; gene NLN, most up-regulated genes) of −0.217 and a mean/difference of means (PBMCs; gene OAS3, most up-regulated genes) of −0.134. For the same molecule, the mean/difference of means (PBMCs; gene OFCC1, most down-regulated genes) was 0.0379, the mean/difference of means (PBMCs; gene PAH, most down-regulated genes) was 0.0906 and the mean/difference of means (PBMCs; gene PAK1IP1, most up-regulated genes) was −0.271. For the same molecule, the mean/difference of means (PBMCs; gene PGDS, most up-regulated genes) was −0.708, the mean/difference of means (PBMCs; gene RGS1, most up-regulated genes) was −0.294 and the mean/difference of means (PBMCs; gene RPE, most up-regulated genes) was −0.116. For the same molecule, the mean/difference of means (PBMCs; gene SERPINI1, most down-regulated genes) was 0.187, the mean/difference of means (PBMCs; gene SH3PXD2A, most down-regulated genes) was 0.0515 and the mean/difference of means (PBMCs; gene SLC38A2, most down-regulated genes) was 0.0979. It also gave a mean/difference of means (PBMCs; gene SNORA24, most up-regulated genes) of −0.212, a mean/difference of means (PBMCs; gene SNRNP70, most down-regulated genes) of 0.0617 and a mean/difference of means (PBMCs; gene SNX6, most up-regulated genes) of −0.0607. It also gave a mean/difference of means (PBMCs; gene SPAG7, most up-regulated genes) of −0.149, a mean/difference of means (PBMCs; gene SRFBP1, most up-regulated genes) of −0.124 and a mean/difference of means (PBMCs; gene TCL1A, most up-regulated genes) of −0.442. It also gave a mean/difference of means (PBMCs; gene TNFRSF17, most up-regulated genes) of −0.295, a mean/difference of means (PBMCs; gene TRABD, most down-regulated genes) of 0.0439 and a mean/difference of means (PBMCs; gene TSN, most up-regulated genes) of −0.105. For the same molecule, the mean/difference of means (PBMCs; gene TUSC3, most down-regulated genes) was 0.0955, the mean/difference of means (PBMCs; gene TXNRD1, most down-regulated genes) was 0.117 and the mean/difference of means (PBMCs; gene UAP1L1, most down-regulated genes) was 0.0398. For the same molecule, the mean/difference of means (PBMCs; gene VIPR1, most down-regulated genes) was 0.123, the mean/difference of means (PBMCs; gene WARS2, most up-regulated genes) was −0.246 and the mean/difference of means (PBMCs; gene WDR70, most up-regulated genes) was −0.0908. The mean/difference of means (PBMCs; gene YPEL2, most down-regulated genes) was 0.183, the mean/difference of means (PBMCs; gene ZNF596, most up-regulated genes) was −0.432 and the mean/difference of means (PBMCs; gene ZNF746, most down-regulated genes) was 0.0386. The mean/difference of means (PBMCs; gene hCG_2024410, most up-regulated genes) was −0.102 and the early deaths [1] was 3.
